Experiments:
tumor cell lines = settings: 10 µM; cited from earlier work
Method: To further examine the applicability of both substances, we analyzed their effect on the viability of Caco-2 cells. […] In those studies, however, viability was determined in tumor cell lines and not in differentiated int ...

[1] = given intravenously, clinical trials; rapid binding to plasma components; cited from earlier work
Excerpt: This might be explained by rapid degradation or reduction of PX-12 by living cells. This is in line with observations in clinical trials, where PX-12 plasma levels were very low when given intravenously due to rapid binding to plasma components.

[2] = system: transepithelial passage of P56-88 in Caco-2 cells; assay: Transepithelial transport of promofluor-conjugated gliadin peptide P56-88 across Caco-2 monolayers (fluorometry); assay type: cell-based, human; settings: 3 h; for transepithelial passage of P56-88 (relative basal fluorescence): 7 µg/mL peptide apical in HBSS, normalized to no inhibitor, mean ± SD, n = 3
Method: (§1) Transepithelial transport of immunogenic and toxic gliadin peptides were examined in Caco-2 cells 7–14 days after confluency. Caco-2 cells were seeded on semi-permeable transwell supports (ThinCert, culture surface: 33.6 mm², pore size: 0.4 µm) in 24-well plates (Greiner Bio One, Pleidelsheim, Germany). Prior to the transport experiments, the integrity of the cell monolayer was tested by measuring the transepithelial electric resistance (TEER) using a volt-ohm meter (Millipore, Schwalbach, Germany). Monolayers with insufficient TEER (<350 Ω/cm^2) were omitted. The synthesis and purification of promofluor-conjugated gliadin peptides were described elsewhere. Cells were either incubated with the immunogenic peptide P56-88 ([…]) or the toxic gliadin peptide P31-43 (LGQQQPFPPQQPY), 7 µg/mL each, in Hank’s balanced salt solution (HBSS) for 3 h. To investigate the role of TG2 on the transport of gliadin peptides, incubation was performed in the presence of ERW1041 and PX-12. After 3 h, basal and apical supernatants were collected, and the relative fluorescence of the basal compartment was quantified using a FLUOstar Optima (BMG Labtech) microplate reader. Background subtraction was performed against conditions, where no labeled peptides were used. Normalization was performed against conditions, where no inhibitors were used.

[3] = system: transepithelial passage of P31-43 in Caco-2 cells; assay: Transepithelial transport of promofluor-conjugated gliadin peptide P31-43 across Caco-2 monolayers (fluorometry); assay type: cell-based, human; settings: 1 µM and 100 µM inhibitor; 3 h
Method: as §1

Row | SMILES | cytotoxicity (tumor cell lines) | plasma levels [1] | effect on the epithelial translocation of P56-88 [2] | transport of P31-43 [3] | transepithelial passage of P56-88 (relative basal fluorescence) ([2]; 1 µM inhibitor) [%] | transepithelial passage of P56-88 (relative basal fluorescence) ([2]; 100 µM inhibitor) [%]
1 | CCC(C)SSc1ncc[nH]1 (stereo not drawn) [PX-12, 2-[(1-methylpropyl)dithio]-1H-imidazole] | cytotoxic effects | very low | no significant effect |  |  | 
2 | O=C(NC[C@@H]1CC(Br)=NO1)[C@@H]1CCCN1C(=O)OCc1cnc2ccccc2c1 [ERW1041] |  |  |  | remained unaffected | 33 ± 22 | 24 ± 16
